Data: patent publication US20020193377A1, “Quinazolines as MMP-13 inhibitors” (priority 2001, published 2002)

Target: T1, human collagenase-3 catalytic domain enzyme (MMP13) (Homo sapiens, UniProt P45452)
T1 construct: human collagenase-3 catalytic domain enzyme
Assay: MMP13CD Thiopeptolide Assay
Assay type: biochemical
Method: MMP13CD Thiopeptolide Assay: Proteolysis of the thiopeptolide substrate Ac-Pro-Leu-Gly-thioester-Leu-Leu-Gly-OEt is used as the primary screen to determine IC50 values for MMP13 inhibitors. A 100 μl reaction contains 50 mM HEPES, 10 mM CaCl2, pH 7.0 (RT), 1 mM 5,5′-dithiobis(2-nitrobenzoic acid) (DTNB), 100 μM substrate, inhibitor in 2.0% DMSO and 2.5 nM human collagenase-3 catalytic domain enzyme. Inhibitors are screened from 100 μM to 0.5 nM. […] Percentage of control velocity in inhibited treatments is plotted against inhibitor concentration to calculate IC50 values.

| IC50 | SMILES |
| --- | --- |
| 0.193 µM | O=C(NCc1cccnc1)c1ccc2[nH]c(=O)n(Cc3ccccc3)c(=O)c2c1 [Example 5, 3-Benzyl-2,4-dioxo-1,2,3,-tetrahydroquinazoline-6-carboxylic acid (3-pyridylmethyl)amide] |
| 0.183 µM | COc1ccc(CNC(=O)c2ccc3[nH]c(=O)n(Cc4ccccc4)c(=O)c3c2)cc1 [Example 6, 3-Benzyl-2,4-dioxo-1,2,3,4-tetrahydroquinazoline-6-carboxylic acid 4-methoxybenzylamide] |
| 0.021 µM | O=C(NCc1ccc(Cl)cc1)c1ccc2[nH]c(=O)n(Cc3ccccc3)c(=O)c2c1 [Example 7, 3-Benzyl-2,4-dioxo-1,2,3,4-tetrahydroquinzaoline-6carboxylic acid 4-chlorobenzylamide] |
| 1.87 µM | Cc1ccc(CNC(=O)c2ccc3[nH]c(=O)n(Cc4ccccc4)c(=O)c3c2)cc1 [Example 8, 3-Benzyl-2,4-dioxo-1,2,3,4-tetrahydroquinazoline-6-carboxylic acid 4-methylbenzylamide] |
| 0.366 µM | Cn1c(=O)n(Cc2ccccc2)c(=O)c2cc(C(=O)NCc3ccc4c(c3)OCO4)ccc21 [Example 9, 3-Benzyl-1-methyl-2,4-dioxo-1,2,3,4-tetrahydroquinazoline-6-carboxylic acid (benzo[1,3]dioxol-5-ylmethyl)amide] |
| 0.049 µM | Cn1c(=O)n(Cc2ccccc2)c(=O)c2cc(C(=O)NCc3ccccc3)ccc21 [Example 10, 3-Benzyl-1-methyl-2,4-dioxo-1,2,3,4-tetrahydroquinazoline-6carboxylic acid benzylamide] |
| 0.167 µM | COC(=O)c1ccc(CNC(=O)c2ccc3c(c2)c(=O)n(Cc2ccccc2)c(=O)n3C)cc1 [Example 11, Methyl 4-({[1-(3-benzyl-1-methyl-2,4-dioxo-1,2,3,4-tetrahydroquinazolin-6-yl)methanoyl]amino}methyl)benzoate] |
| 1.32 µM | COc1cc(CNC(=O)c2ccc3c(c2)c(=O)n(Cc2ccccc2)c(=O)n3C)ccc1O [Example 12, 3-Benzy-1-methyl-2,4-dioxo-1,3,3,4-tetrahydroquinazoline-6-carboxylic acid 4-hydroxy-3-methoxybenzylamide] |
| 0.005 µM | COc1ccc(CNC(=O)c2ccc3c(c2)c(=O)n(Cc2ccccc2)c(=O)n3C)cc1 [Example 13, 3-Benzyl-1-methyl-2,4-dioxo-1,2,3,4-tetrahydroquinazoline-6-carboxylic acid 4-methoxybenzylamide] |
| 0.057 µM | Cn1c(=O)n(Cc2ccccc2)c(=O)c2cc(C(=O)NCc3ccncc3)ccc21 [Example 14, 3-Benzyl-1-methyl-2,4-dioxo-1,2,3,4-tetrahydroquinazoline-6-carboxylic acid (4-pyridylmethyl)amide] |
| 2.25 µM | Cn1c(=O)n(CCc2ccccc2)c(=O)c2cc(C(=O)NCc3ccc4c(c3)OCO4)ccc21 [Example 15, 1-Methyl-2,4-dioxo-3-phenethyl-1,2,3,4-tetrahydroquinazoline-6-carboxylic acid (benzo[1,3]dioxol-5-ylmethyl)amide] |
| 0.042 µM | COc1ccc(Cn2c(=O)[nH]c3ccc(C(=O)NCc4ccc5c(c4)OCO5)cc3c2=O)cc1 [Example 16, 3-(4-Methoxybenzyl)-2,4-dioxo-1,2,3,4-tetrahydroquinazoline-6-carboxylic acid (benzo[1,3]dioxol-5-ylmethyl)amide] |
| 0.012 µM | COc1ccc(Cn2c(=O)c3cc(C(=O)NCc4ccc5c(c4)OCO5)ccc3n(C)c2=O)cc1 [Example 17, 3-(4-Methoxybenzyl)-1-methyl-2,4-dixo-1 3,4-tetrahydroquinazoline-6-carboxylic acid (benzo[1,3]dioxo-5-ylmethyl)amide] |
| 0.051 µM | COc1ccc(CNC(=O)c2ccc3c(c2)c(=O)n(Cc2ccc(OC)cc2)c(=O)n3C)cc1 [Example 18, 3-(4-Methoxybenzyl)-1-methyl-2,4-dioxo-1,2,3,4-tetrahydroquinazoline-6-carboxylic acid 4-methoxybenzylamide] |
| 0.015 µM | O=C(NCc1ccc2c(c1)OCO2)c1ccc2[nH]c(=O)n(Cc3ccncc3)c(=O)c2c1 [Example 20, 2,4-Dioxo-3-(pyrid-4-ylmethyl)-1,2,3,4-tetrahydroquinazoline-6-carboxylic acid (benzo[1,3]dioxol-5ylmethyl)amide] |
| 0.009 µM | O=C(NCc1ccccc1)c1ccc2[nH]c(=O)n(Cc3cccs3)c(=O)c2c1 [Example 21, 2,4-Dioxo3-(thien-2-ylmethyl)-1,2,3,4-tetrahydroquinazoline-6-carboxylic acid benzylamide] |
| 0.051 µM | Cn1c(=O)n(Cc2cccs2)c(=O)c2cc(C(=O)NCc3ccc4c(c3)OCO4)ccc21 [Example 24, 1-Methyl-2,4-dioxo-3-(thien-2-ylmethyl)-1,2,4,4-tetrahydroquinazoline-6-carboxylic acid (benzo[1,3]dioxol-5-ylmethyl)amide] |

| IC50 | SMILES |
| --- | --- |
| 0.3 µM | O=C(NCc1ccc2c(c1)OCO2)c1ccc2[nH]c(=O)n(Cc3ccc(Cl)cc3)c(=O)c2c1 [Example 25, 3-(4-Chlorobenzyl)-2,4-dioxo-1,2,3,4-tetrahydroquinazoline-6-carboxylic acid (benzo[1,3]dioxol-5-ylmethyl)amide] |
| 0.096 µM | Cn1c(=O)n(Cc2ccc(Cl)cc2)c(=O)c2cc(C(=O)NCc3ccc4c(c3)OCO4)ccc21 [Example 26, 3-(4Chlorobenzyl)-1-methyl-2,4-dioxo-1,2,3,4-tetrahydroquinazoline-6-carboxylic acid (benzo[1,3]dioxol-5-ylmethyl)amide] |
| 0.029 µM | Cn1c(=O)c2cc(C(=O)NCc3ccc4c(c3)OCO4)ccc2n(C)c1=O [Example 27, 1,3-Dimethyl-2,4-dioxo-1,2,3,4-tetrahydroquinazoline-6-carboxylic acid (benzo[1,3]dioxol-5-ylmethyl)amide] |
| 0.028 µM | Cn1c(=O)n(Cc2ccc3c(c2)OCO3)c(=O)c2cc(C(=O)NCc3ccc4c(c3)OCO4)ccc21 [Example 29, 3-(Benzo[1,3]dioxol-5-ylmethyl)-1-methyl-2,4-dioxo-1,2,3,4-tetrahydroquinazoline-6carboxylic acid (benzo[1,3]dioxol-5-ylmethyl)amide] |
| 0.009 µM | CCn1c(=O)n(Cc2ccccc2)c(=O)c2cc(C(=O)NCc3ccc4c(c3)OCO4)ccc21 [Example 30, 3-Benzyl-1-ethyl-2,4-dioxo-1,2,3,4-tetraquinazoline-6-carboxylic acid (benzo[1,3]dioxol-5-ylmethyl)amide] |
| 1.7 µM | O=C(NCc1ccc2c(c1)OCO2)c1ccc2c(c1)c(=O)n(Cc1ccccc1)c(=O)n2CC1CC1 [Example 31, 3-Benzyl-1-cyclopropylmethyl-2,4-dioxo-1,2,3,4-tetrahydroquinazoline-6-carboxylic acid (benzo[1,3]dioxol-5-ylmethy)amide] |
| 0.017 µM | CC(C)Cn1c(=O)n(Cc2ccccc2)c(=O)c2cc(C(=O)NCc3ccc4c(c3)OCO4)ccc21 [Example 32, 3-Benzyl-1-isobutyl-2,4-dioxo-1,2,3,4-tetrahydroquinazoline-6-carboxylic acid (benzo[1,3]dioxol-5-ylmethyl)amide] |
| 0.003 µM | Cn1c(=O)[nH]c(=O)c2cc(C(=O)NCc3ccc4c(c3)OCO4)ccc21 [Example 33, 1-Methyl-2,4-dioxo-1,2,3,4-tetrahydrquinazoline-6-carboxylic acid (benzo[1,3]-dioxol-5-ylmethyl)amide] |
| 0.026 µM | COC(=O)c1ccc(Cn2c(=O)c3cc(C(=O)NCc4ccc(OC)cc4)ccc3n(C)c2=O)cc1 [Example 34, Methyl 4-[6-(4-methoxy-benzylcarbamoyl)-1-methyl-2,4-dioxo-1,4-dihydro-2H-quinazolin-3-ylmethyl]-benzoate] |
| 0.6 µM | Cn1c(=O)n(C/C=C/c2ccccc2)c(=O)c2cc(C(=O)NCc3ccc4c(c3)OCO4)ccc21 [Example 36, 1-Methyl-2,4-dioxo-3-((E)-3phenylally)-1,2,3,4-tetrahydroquinazoline-6-carboxylic acid (benzo[1,3]dioxol-5-ylmethyl)amide] |
| 0.75 µM | O=C(OCc1ccccc1)c1ccc2[nH]c(=O)n(Cc3ccccc3)c(=O)c2c1 [Example 37, Benzyl 3-benzyl-2,4-dioxo-1,2,3,4-tetrahydroquinazolne-6-carboxylate] |
| 0.001 µM | O=C(OCc1ccncc1)c1ccc2[nH]c(=O)n(Cc3ccccc3)c(=O)c2c1 [Example 39, 4-Pyridylmethyl 3-benzyl-2,4-dioxo-1,2,3,4-tetrahydroqinazoline-6-carboxylate] |
| 0.028 µM | Cn1c(=O)n(Cc2ccccc2)c(=O)c2cc(C(=O)OCc3ccncc3)ccc21 [Example 40, 4-Pyridylmethyl 3-benzyl-1-methyl-2,4-dioxo-1,3,3,4-tetrahydroquinazoline-6-carboxylate] |
| 0.029 µM | O=C(OCc1ccc2c(c1)OCO2)c1ccc2[nH]c(=O)n(Cc3ccccc3)c(=O)c2c1 [Example 41, Benzo[1,3]dioxol-5-ylmethyl3-benzyl-2,4-dioxo-1,2,3,4-tetrahydroquinazoline-6-carboxylate] |
| 0.031 µM | Cn1c(=O)n(Cc2ccccc2)c(=O)c2cc(C(=O)OCc3ccc4c(c3)OCO4)ccc21 [Example 42, Benzo[1,3]dioxol-5-ylmethyl3-benzyl-1-methyl-2,4-dioxo-1,2,3,4-tetrahydroquinazoline-6-carboxylate] |
| 0.011 µM | O=C(OCc1ccccc1)c1ccc2c(c1)c(=O)n(Cc1ccncc1)c(=O)n2Cc1ccccc1 [Example 43, Benzyl 1-benzyl-2,4-dioxo-3-pyrid-4-ylmethyl-1,2,3,4-tetrahydroquinazoline-6carboxylate] |
| 0.004 µM | O=C(OCc1ccncc1)c1ccc2[nH]c(=O)n(Cc3cccs3)c(=O)c2c1 [Example 44, 4-Pyridylmethyl 2,4-dioxo-3-(thien-2-ylmethyl)-1,2,3,4-tetrahydroquinazoline-6-carboxylate] |
